In patent EP0931078B1, “NOVEL TRICYCLIC PIPERIDINYL COMPOUNDS USEFUL AS INHIBITORS OF FARNESYL-PROTEIN TRANSFERASE” (SCHERING CORPORATION, priority 1996, dated 1998):
Read-outs that look alike come from different tables or passages of the source. Each block holds one compound with its values, some of them ahead of it.

Target: T1, partially purified rat brain famesyl protein transferase (FPT) (Rattus norvegicus, UniProt Q02293+Q04631)
T1 construct: partially purified rat brain famesyl protein transferase (FPT); from tissue; host or cells: rat brain
T1 sequence (Q02293 whole entry, one chain of several): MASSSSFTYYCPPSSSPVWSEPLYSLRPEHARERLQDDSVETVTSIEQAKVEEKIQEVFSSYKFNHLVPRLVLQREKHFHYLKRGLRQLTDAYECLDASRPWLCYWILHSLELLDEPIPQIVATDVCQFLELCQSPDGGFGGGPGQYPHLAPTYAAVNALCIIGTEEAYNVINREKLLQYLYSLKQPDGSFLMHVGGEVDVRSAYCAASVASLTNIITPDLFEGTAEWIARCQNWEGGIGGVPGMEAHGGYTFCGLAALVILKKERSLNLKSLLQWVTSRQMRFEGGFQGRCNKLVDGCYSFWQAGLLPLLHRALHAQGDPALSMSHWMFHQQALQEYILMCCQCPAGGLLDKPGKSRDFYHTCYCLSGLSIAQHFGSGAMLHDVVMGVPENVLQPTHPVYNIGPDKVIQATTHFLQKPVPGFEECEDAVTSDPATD
Assay: In vitro enzyme assay: inhibition of Ras-CVLS farnesylation by farnesyl protein transferase (FPT)
Type: biochemical
Method: • 1. In vitro enzyme assays: FPT IC50 (inhibition of famesyl protein transferase, in vitro enzyme assay) are determined by the methods disclosed in […] or WO 95/10516. […] Cell-based assay. COS IC50 values refer to the COS cells activity inhibition of Ras processing, are determined by the methods disclosed in […] or WO 95/10516.

Compound: O=C(NCCc1ccccn1)C1CCN(C2c3ccc(Cl)cc3CCc3cc(Br)cnc32)CC1 (racemic) [Example 6, 1-(3-Bromo-8-chloro-6,11-dihydro-5H-benzo[5,6]cyclohepta[1,2-b]pyridin-11-yl)-N-(2-pyridiriylethyl)-4-piperidinecarboxamide]
- inhibition at 1.1 µM (read-out: FPT Inhibition): 9%

Compound: NC(=O)N1CCC(NC(=O)C2CCN(C3c4ccc(Cl)cc4CCc4cc(Br)cnc43)CC2)CC1 (racemic) [Example 7, 1-(3-Bromo-8-chloro-6,11-dihydro-5H-benzo[5,6]cyclohepta[1,2-b]pyridin-11-yl)-N-[4-(N-carboxamidopiperidinyl)]-4-piperidinecarboxamide]
- inhibition at 0.36 µM (@ 0.36 µM): 15%

Compound: O=C(NCc1cccnc1)C1CCCN(C2c3ccc(Cl)cc3CCc3cc(Br)cnc32)C1 (single isomer, unassigned) [Example 10 Isomer A, 1-(3-Bromo-8-chloro-6,11-dihydro-5H-benzo[5,6]cyclohepta[1,2-b]pyridin-11-yl)-N-(3-pyridinylmethyl)-3-piperidinecarboxamide]
- inhibition at 1.14 µM (read-out: FPT Inhibition): 6.1%

Compound: O=C(NCc1cccnc1)C1CCCN(C2c3ccc(Cl)cc3CCc3cc(Br)cnc32)C1 (single isomer, unassigned) [Example 10 Isomer B, 1-(3-Bromo-8-chloro-6,11-dihydro-5H-benzo[5,6]cyclohepta[1,2-b]pyridin-11-yl)-N-(3-pyridinylmethyl)-3-piperidinecarboxamide]
- IC50: 0.194 µM

Compound: O=C(NCc1cccnc1)C1CCCN(C2c3ccc(Cl)cc3CCc3cc(Br)cnc32)C1 (single isomer, unassigned) [Example 10 Isomer C, 1-(3-Bromo-8-chloro-6,11-dihydro-5H-benzo[5,6]cyclohepta[1,2-b]pyridin-11-yl)-N-(3-pyridinylmethyl)-3-piperidinecarboxamide]
- IC50: 0.179 µM

Compound: O=C(NCc1cccnc1)C1CCCN(C2c3ccc(Cl)cc3CCc3cc(Br)cnc32)C1 (single isomer, unassigned) [Example 10 Isomer D, 1-(3-Bromo-8-chloro-6,11-dihydro-5H-benzo[5,6]cyclohepta[1,2-b]pyridin-11-yl)-N-(3-pyridinylmethyl)-3-piperidinecarboxamide]
- IC50: 0.187 µM

Compound: O=C(NCc1cccnc1)C1CCCN(C2c3ncc(Br)cc3CCc3cc(Cl)cc(Br)c32)C1 (single isomer, unassigned) [Example 17 Isomer A, 1-(3,10-Dibromo-8-chloro-6,11-dihydro-5H-benzo[5,6]cyclohepta[1,2-b]pyridin-11-yl)-N-(3-pyridinylmethyl)-3-piperidinecarboxamide]
- IC50: < 0.0099 µM

Compound: O=C(NCc1cccnc1)C1CCCN(C2c3ncc(Br)cc3CCc3cc(Cl)cc(Br)c32)C1 (single isomer, unassigned) [Example 17 Isomer B, 1-(3,10-Dibromo-8-chloro-6,11-dihydro-5H-benzo[5,6]cyclohepta[1,2-b]pyridin-11-yl)-N-(3-pyridinylmethyl)-3-piperidinecarboxamide]
- inhibition at 0.1 µM (read-out: FPT Inhibition): 3.4%

Compound: O=C(Nc1ccncc1)C1CCN(C2c3ccc(Cl)cc3CCc3cc(Br)cnc32)CC1 (stereo not shown) [Example 2, 1-(3-Bromo-8-chloro-6,11-dihydro-5H-benzo[5,6]cyclohepta[1,2-b]pyridin-11-yl)-N-(4-pyridinyl)-4-piperidinecarboxamide]
- inhibition at 0.39 µM (read-out: FPT Inhibition): 0%

Compound: O=C(NCc1ccncc1)C1CCN(C2c3ccc(Cl)cc3CCc3cc(Br)cnc32)CC1 (stereo not shown) [Example 3, 1-(3-Bromo-8-chloro-6,11-dihydro-5H-benzo[5,6]cyclohepta[1,2-b]pyridin-11-yl)-N-(4-pyridinylmethyl)-4-piperidinecarboxamide]
- inhibition at 1.1 µM (read-out: FPT Inhibition): 21%

Compound: O=C(NC1CCNCC1)C1CCN(C2c3ccc(Cl)cc3CCc3cc(Br)cnc32)CC1 (stereo not shown) [Example 7 Step B, 1-(3-Bromo-8-chloro-6,11-dihydro-5H-benzo[5,6]cyclohepta[1,2-b]pyridin-11-yl)-N-(4-piperidinyl)-4-piperidinecarboxamide]
- inhibition at 0.39 µM (read-out: FPT Inhibition): 8.75%

Compound: O=C(NCC1CCNCC1)C1CCN(C2c3ccc(Cl)cc3CCc3cc(Br)cnc32)CC1 (stereo not shown) [Example 8 Step B, 1-(3-Bromo-8-chloro-6,11-dihydro-5H-benzo[5,6]cyclohepta[1,2-b]pyridin-11-yl)-N-(4-piperidinylmethyl)-4-piperidinecarboxamide]
- inhibition at 0.38 µM (read-out: FPT Inhibition): 12%

Compound: NC(=O)NCC1CCN(C(=O)C2CCN(C3c4ccc(Cl)cc4CCc4cc(Br)cnc43)CC2)CC1 (stereo not shown) [Example 9, 1-[1-(3-Bromo-8-chloro-6,11-dihydro-5H-benzo[5,6]cyclohepta[1,2-b]pyridin-11-yl)-4-piperidinylcarbonyl]-4-[(1-aminomethanamido)methyl]piperidine]
- IC50: 0.66 µM

Compound: O=C(NCc1cccnc1)C1CCCN(C2c3ccc(Cl)cc3CCc3cc(Br)cnc32)C1 (stereo not shown) [Example 10, 1-(8-chloro-3-bromo-5,6-dihydro-11H-benzo[5,6]-cyclohepta[1,2-b]pyridin-11-yl)piperidine-3-(N-3-pyridylmethylamino)carboxamide]
- IC50: 0.21 µM

Compound: O=C(NCc1cccnc1)C1CCCN(C2c3ncc(Br)cc3CCc3cc(Cl)cc(Br)c32)C1 (stereo not shown) [Example 16, 1-(3,10-Dibromo-8-chloro-6,11-dihydro-5H-benzo[5,6]cyclohepta[1,2-b]pyridin-11-yl)-N-(3-pyridinylmethyl)-3-piperidinecarboxamide]
- IC50: 0.027 µM

Compound: O=C(CC1CCCN(C2c3ccc(Cl)cc3CCc3cc(Br)cnc32)C1)NCc1cccnc1 (stereo not shown) [Example 18, 1-(3-Bromo-8-chloro-6,11-dihydro-5H-benzo[5,6]cyclohepta[1,2-b]pyridin-11-yl)-N-(3-pyridinylmethyl)-3-piperidineacetamide]
- inhibition at 1.1 µM (read-out: FPT Inhibition): 9%

The remaining lines, values ahead:

- inhibition at 1.04 µM (@ 1.04 µM): 41%
Compound: NC(=O)N1CCC(CNC(=O)C2CCN(C3c4ccc(Cl)cc4CCc4cc(Br)cnc43)CC2)CC1 (racemic) [Example 8, 1-(3-Bromo-8-chloro-6,11-dihydro-5H-benzo[5,6]cyclohepta[1,2-b]pyridin-11-yl)-N-[4-(N-carboxamidopiperidinyl)methyl]-4-piperidinecarboxamide]

- inhibition at 0.38 µM (@ 0.38 µM, read-out: FPT Inhibition): 16%
Compound: NCC1CCN(C(=O)C2CCN(C3c4ccc(Cl)cc4CCc4cc(Br)cnc43)CC2)CC1 (racemic) [Example 9 Step B]

- inhibition at 1.1 µM (@ 1.1 µM, read-out: FPT Inhibition): 18%
Compound: O=C(NCc1ccncc1)[C@@H]1CCCCN1C1c2ccc(Cl)cc2CCc2cc(Br)cnc21 (single isomer, unassigned) [Example 12, 1-(3-Bromo-8-chloro-6,11-dihydro-5H-benzo[5,6]cyclohepta[1,2-b]pyridin-11-yl)-N-(4-pyridinylmethyl)-2S-piperidinecarboxamide]

- FPT Inhibition (@ 1.1 µM): 21%
Compound: O=C(NCc1ccncc1)[C@@H]1CCCCN1C1c2ccc(Cl)cc2CCc2cc(Br)cnc21 (single isomer, unassigned) [Example 13, 1-(3-Bromo-8-chloro-6,11-dihydro-5H-benzo[5,6]cyclohepta[1,2-b]pyridin-11-yl)-N-(4-pyridinylmethyl)-2S-piperidinecarboxamide]

- IC50 (unit printed as uM (Examples 49-54)): 0.1 µM
Compound: O=C(NCc1ccc[n+]([O-])c1)[C@@H]1CCCN(C2c3ncc(Br)cc3CCc3cc(Cl)cc(Br)c32)C1 (single isomer, unassigned) [Example 51, 1-(3,10-Dibromo-8-chioro-6,11-dihydro-5H-benzo[5,6]cyclohepta[1,2-b]pyridin-11-yl)-N-(3-pyridinylmethyl)-3-piperidinecarboxamide N1-oxide]

- FPT Inhibition (@ 1.1 µM): FPT Inhibition = 0% @ 1.1 µM
Compound: O=C(NCc1ccncc1)[C@H]1CCCCN1C1c2ccc(Cl)cc2CCc2cc(Br)cnc21 (single isomer, unassigned) [Isomer A2 amide]

- FPT Inhibition (@ 1.1 µM): FPT Inhibition = 13% @ 1.1 µM
Compound: O=C(NCc1ccncc1)[C@H]1CCCCN1C1c2ccc(Cl)cc2CCc2cc(Br)cnc21 (single isomer, unassigned) [Isomer B2 amide]

- IC50: 0.3 µM
Compound: O=C(NCc1cccnc1)C1CCCCN1C1c2ccc(Cl)cc2CCc2cc(Br)cnc21 (single isomer, unassigned) [Isomer C1 amide]

- FPT Inhibition (@ 0.38 µM): FPT Inhibition =11% @ 0.38 µM
Compound: O=C(NCc1cccnc1)[C@H]1CCCCN1C1c2ccc(Cl)cc2CCc2cc(Br)cnc21 (single isomer, unassigned) [Isomer C2 amide]

- IC50: 0.16 µM
Compound: O=C(NCc1cccnc1)C1CCCCN1C1c2ccc(Cl)cc2CCc2cc(Br)cnc21 (single isomer, unassigned) [Isomer D1 amide]

- FPT Inhibition (@ 0.38 µM): FPT Inhibition = 0% @ 0.38 µM
Compound: O=C(NCc1cccnc1)[C@H]1CCCCN1C1c2ccc(Cl)cc2CCc2cc(Br)cnc21 (single isomer, unassigned) [Isomer D2 amide]

- IC50: 9.24 µM
Compound: O=C(Nc1ccncc1)C1CCN(C2c3ccc(Cl)cc3CCc3cccnc32)CC1 (stereo not shown) [Example 1, 1-[8-Chloro-6,11-dihydro-5H-benzo[5,6]cyclohepta[1,2-b]pyridin-11-yl]-N-(4-pyridinyl)-4-piperidinecarboxamide]

- IC50: 1.3 µM
Compound: O=C(NCc1cccnc1)C1CCN(C2c3ccc(Cl)cc3CCc3cc(Br)cnc32)CC1 (stereo not shown) [Example 4, 1-(3-Bromo-8-chloro-6,11-dihydro-5H-benzo[5,6]cyclohepta[1,2-b]pyridin-11-yl)-N-(3-pyridinylmethyl)-4-piperidinecarboxamide]

- IC50: 1.8 µM
Compound: O=C(NCc1ccccn1)C1CCN(C2c3ccc(Cl)cc3CCc3cc(Br)cnc32)CC1 (stereo not shown) [Example 5, 1-(3-Bromo-8-chloro-6,11-dihydro-5H-benzo[5,6]cyclohepta[1,2-b]pyridin-11-yl)-N-(2-pyridinyimethyl)-4-piperidinecarboxamide]

- IC50: 0.065 µM
Compound: O=C(Nc1cccnc1)C1CCCN(C2c3ccc(Cl)cc3CCc3cc(Br)cnc32)C1 (stereo not shown) [Example 11, 1-(3-bromo-8-chloro-6,11-dihydro-5H-benzo[5,6]cyclohepta [1,2-b]pyridin-11-yl)-N-(3-pyridinyl)-3-piperidinecarboxamide]
